Measured values reported in patent US5234944A (priority 1986, dated 1993).
Like-named read-outs stand apart in the source and are kept apart here.

Key:
opiated receptor K = molecular target: T1, opiated receptor K (Cavia porcellus, UniProt P41144); test: Liaison with the opiated receptor K in vitro (displacement of 3H ethylketocyclazocine); assay type: binding; conditions: guinea-pig cerebella membranes, 3H ethylketocyclazocine 1 nM, Tris pH 7.7, 25° C., 40 minutes
T1 construct: Membrane residue prepared from the cerebella of guinea-pigs; from tissue; host or cells: guinea-pig cerebellum membranes

[1] = Hypotensive activity on the anaesthetized rat; assay type: in vivo, rat (Sprague Dawley); conditions: injected into jugular vein
[2] = assay type: in vivo, rat; conditions: intravenous, aconitine 5 minutes after
[3] = Measurement of the diuretic activity; assay type: in vivo, rat (Sprague Dawley); conditions: oral, t1h-t5h
Experimental: 4) Measurement of the diuretic activity
Male rats of Sprague Dawley strain weighing 180 to 200 g were not fed for 17 hours before the test, but received water ad libitum. Groups of 8 animals were set up for each dose tested and the rats received the product under test or its vehicle orally. The urinary volume was measured every hour for the 5 hours following the administration of the product. At the end of this period, the urines were collected and the activity of the product was expressed as a percentage of variation calculated on the urinary volume corresponding to the period t1h -t5h.

[4] = read-out: 50% inhibiting concentration (IC50)
[5] = 50% inhibiting concentration (IC50)

T1 sequence (P41144 whole entry): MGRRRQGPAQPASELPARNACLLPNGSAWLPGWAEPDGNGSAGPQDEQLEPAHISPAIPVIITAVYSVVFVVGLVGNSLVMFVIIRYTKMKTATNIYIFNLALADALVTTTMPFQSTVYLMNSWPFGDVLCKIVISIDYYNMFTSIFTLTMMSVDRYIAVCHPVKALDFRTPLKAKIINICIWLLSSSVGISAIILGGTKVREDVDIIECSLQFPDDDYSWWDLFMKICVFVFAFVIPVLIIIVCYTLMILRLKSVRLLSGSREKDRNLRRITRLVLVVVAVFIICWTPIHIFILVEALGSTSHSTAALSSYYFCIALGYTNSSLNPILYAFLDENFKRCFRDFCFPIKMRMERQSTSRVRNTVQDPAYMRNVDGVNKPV

## CC(C(=O)N(C)[C@@H]1c2ccccc2C[C@H]1N1CCCC1)c1ccc(Cl)c(Cl)c1 (mixture of isomers) [Example 22, [Trans (±)]3,4-dichloro-N-[2,3-dihydro-2-(1-pyrrolidinyl)-1H-inden-1-yl]-N-α-dimethyl-benzene-acetamide]
Opiated receptor K; [4]
  IC50: 7.1 nM

## CN(C(=O)Cc1ccc(Cl)c(Cl)c1)[C@H]1[C@H](N2CCCC2)c2ccccc2C12CCOCC2 (relative stereo) [Example 4, [trans (±)]3,4-dichloro-N-[2,2',3,3',5',6'-hexahydro-3-(1-pyrrolidinyl)-spiro (1H-inden-1-,4'-(4H)-pyran]-2-yl]-N-methyl-benzene-acetamide]
[1]; dose 10 mg/kg
  variation of arterial pressure, 5 min. after administration: -26%
  variation of arterial pressure, 30 min. after administration: -14%

## CN(C(=O)Cc1ccc(C(F)(F)F)cc1)[C@@H]1c2ccccc2C[C@H]1N1CCCC1 (relative stereo) [Example 5, [Trans (±)]N-[2,3-dihydro-2-(1-pyrrolidinyl)-1H-inden-1-yl]-N-methyl 4-(trifluoromethyl)-benzene-acetamide]
Opiated receptor K; [5]
  IC50: 3 nM
[1]; dose 1 mg/kg
  variation of arterial pressure, 5 min. after administration: -20%
  variation of arterial pressure, 30 min. after administration: -20%
[1]; dose 10 mg/kg
  variation of arterial pressure, 5 min. after administration: -25%
  variation of arterial pressure, 30 min. after administration: -10%
[2]; dose 10 mg/kg
  percentage of extension of time of appearance of disturbances of the cardiac rhythm: +15.6%

## CN(C(=O)Cc1cccc(C(F)(F)F)c1)[C@@H]1c2ccccc2C[C@H]1N1CCCC1 (relative stereo) [Example 6, [Trans (±)]N-[2,3-dihydro-2-(1-pyrrolidinyl)-1H-inden-1-yl]-N-methyl-3-(trifluoromethyl)-benzene-acetamide]
Opiated receptor K; [5]
  IC50: 7.5 nM

## CN(C(=O)Cc1ccc([N+](=O)[O-])cc1)[C@@H]1c2ccccc2C[C@H]1N1CCCC1 (relative stereo) [Example 8, [Trans (±)]N-[2,3-dihydro-2-(1-pyrrolidinyl)-1H-inden-1-yl]-N-methyl-4-nitro-benzene-acetamide]
Opiated receptor K; [5]
  IC50: 7.1 nM
[1]; dose 1 mg/kg
  variation of arterial pressure, 5 min. after administration: -25%
  variation of arterial pressure, 30 min. after administration: -27%
[3]; dose 2.5 mg/kg
  percentage of variation of the urinary volume: +124%
[3]; dose 5 mg/kg
  percentage of variation of the urinary volume: +130%
[2]; dose 5 mg/kg
  percentage of extension of time of appearance of disturbances of the cardiac rhythm: +23%

## CN(C(=O)COc1ccc(Cl)c(Cl)c1)[C@@H]1c2ccccc2C[C@H]1N1CCCC1 (relative stereo) [Example 14, [trans (±)]2-(3,4-dichlorophenoxy)-N-[2,3-dihydro-2-(1-pyrrolidinyl)-1H-inden-1-yl]-N-methyl-acetamide]
Opiated receptor K; [4]
  IC50: 3.8 nM
[1]; dose 1 mg/kg
  variation of arterial pressure, 5 min. after administration: -22%
  variation of arterial pressure, 30 min. after administration: -26%
[3]; dose 5 mg/kg
  percentage of variation of the urinary volume: +68%

## CN(C(=O)Cc1ccc([N+](=O)[O-])cc1)[C@@H]1c2ccccc2C[C@H]1N1CCCC1 (relative stereo) [Example 16, [Trans (±)]N-[2,3-dihydro-2-(1-pyrrolidinyl)-1H-inden-1-yl]-N-methyl-4-nitro-benzene-acetamide (isomer A)]
Opiated receptor K; [5]
  IC50: 5 nM

## CN(C)[C@@H]1Cc2ccccc2[C@H]1N(C)C(=O)Cc1ccc(Cl)c(Cl)c1 (relative stereo) [Example 25, [Trans (±)]3,4-dichloro-N-[2,3-dihydro-2-(dimethylamino)-1H-inden-1-yl]-N-methyl-benzene-acetamide]
Opiated receptor K; [5]
  IC50: 2.2 nM

## CN(C(=O)Cc1ccc(Cl)c(Cl)c1)[C@H]1[C@H](N2CCCC2)c2ccccc2C1(C)C (relative stereo) [Example 29, [Trans (±)]3,4-dichloro-N-[2,3-dihydro-1,1-dimethyl-3-(1-pyrrolidinyl)-1H-inden-2-yl]-N-methyl-benzene-acetamide]
Opiated receptor K; [5]
  IC50: 5.6 nM
